Laboratory results reported in patent publication US20220186188A1, “Method for Obtaining Pancreatic Progenitor Cells and Pancreatic Islet Beta Cells By Means of Differentiation of Human Pluripotent Stem Cells” (Asia Regenerative Medicine, Ltd., priority 2019, published 2022).

Columns and labels:
[1] = system: pancreatic progenitor cells differentiated from human induced pluripotent stem cells; assay: Flow cytometry detection of PDX1 in the pancreatic progenitor cell stage (human induced pluripotent stem cells); type: cell-based; conditions: 2 μM inhibitor in pancreatic progenitor cell medium, 5 days, compared with control group without WNT inhibitor
Protocol: a pancreatic progenitor cell medium was prepared, the medium in step 1) was replaced with the pancreatic progenitor cell medium, and the cells were cultured in a carbon dioxide incubator at 37 degrees Celsius for 5 days, during which the medium was replaced every day, wherein the composition of the pancreatic progenitor cell medium was: with an MCDB131 medium as a basic medium, and the following components at the working concentrations were further included: 0.5% of bovine serum albumin (BSA), 1.5 g/L of sodium bicarbonate, 1×glutamine (GlutaMAX), 10 mM glucose, […] vitamin C, 1×insulin-transferrin-selenium-ethanolamine additive (ITS-X), 50 ng/ml of fibroblast growth factor (KGF), 0.5 μM SANT1 (with smo as an inhibitor target), 100 nM retinoic acid (TTNPB), 500 nM phorbol 12,13-dibutyrate (PDBu), 2 μM ALK inhibitor (K02288), and 2 μM WNT signaling pathway inhibitor XAV-939 (not added in a control group), with the concentrations all being final concentrations. […]

[2] = system: pancreatic progenitor cells and pancreatic islet β cells differentiated from human embryonic stem cells; assay: Real-time fluorescence quantitative PCR of PDX1, NKX6-1 and INS mRNA (human embryonic stem cells); type: cell-based; conditions: qPCR
Protocol: a pancreatic progenitor cell medium was prepared, the medium in step 1) was replaced with the pancreatic progenitor cell medium, and the cells were cultured in a carbon dioxide incubator at 37 degrees Celsius for 5 days, during which the medium was replaced every day, wherein the composition of the pancreatic progenitor cell medium was: with an MCDB131 medium as a basic medium, and the following components at the working concentrations were further included: 0.5% of bovine serum albumin (BSA), 1.5 g/L of sodium bicarbonate, 1×glutamine (GlutaMAX), 10 mM glucose, 0.25 M vitamin C, 1×insulin-transferrin-selenium-ethanolamine additive (ITS-X), 50 ng/ml of fibroblast growth factor 7 (KGF), 0.5 μM SANT1 (with smo as an inhibitor target), 100 nM retinoic acid (TTNPB), 500 nM phorbol 12,13-dibutyrate (PDBu), 2 μM ALK inhibitor (K02288), and 2 μM WNT signaling pathway inhibitor XAV-939 (not added in a control group), with the concentrations all being final concentrations.
b. pancreatic islet β cell medium 2 was prepared, the pancreatic islet β cell medium 1 in above-mentioned step a was replaced with the pancreatic islet β cell medium 2, and the cells were cultured in a carbon dioxide incubator at 37 degrees Celsius for 5 days, during which the medium was replaced every day, wherein the composition of the pancreatic islet β cell medium 1 was: with an MCDB131 medium as a basic medium, and the following components at the working concentrations were further included: 20 mM glucose, 2% of bovine serum albumin (BSA), 1.5 g/L of sodium bicarbonate, 1×glutamine (GlutaMAX), 0.05 mM vitamin C, 1×insulin-transferrin-selenium-ethanolamine additive (ITS-X), 2 μM ALK inhibitor (K02288), 1 μM triiodothyronine (T3), 10 μM YO-01027 (Notch signaling pathway inhibitor), and 10 μM zinc sulfate, with the concentrations all being final concentrations; and the composition of the pancreatic islet β cell medium 2 was: with an MCDB131 medium as a basic medium, and the following components at the working concentrations were further included: 20 mM glucose, 2% of bovine serum albumin (BSA), 1.5 g/L of sodium bicarbonate, 1×glutamine (GlutaMAX), 0.05 mM vitamin C, 1×insulin-transferrin-selenium-ethanolamine additive (ITS-X), 1 μM triiodothyronine (T3), 10 μM Repsox (ALK5 inhibitor), 10 μM vitamin E, 10 μg/ml of heparin sodium, 2 μM R428 (Axl inhibitor), 10 μM zinc sulfate, and 10 mM N-acetyl-L-cysteine (N-cys), with the concentrations all being final concentrations.
Cells cultured in a 24-well plate were collected, and washed twice with 500 μl of DPBS at first, then covered with 200 μl of chymotrypsin-trypsin (Trypsin), and placed at 37° C. for 5 minutes of digestion. Whether the cells float in pieces was observed, and the digestion was terminated using 500 μl of DMEM/F12 medium, then the product was centrifuged at 1000 rpm for 3 minutes, the supernatant was removed, and cell pellets were collected and added to a new RNase-free centrifuge tube. […]

[3] = 2 μM inhibitor in pancreatic progenitor cell stage, GAPDH reference

Structure (SMILES): Oc1nc(-c2ccc(C(F)(F)F)cc2)nc2c1CSCC2 [XAV-939]
- PDX1-positive pancreatic progenitor cells (flow cytometry) [1]: significantly increased
- transcription level of the insulin gene INS in the mature pancreatic islet β cell stage ([2]; 2 μM inhibitor added in pancreatic progenitor cell stage): greatly increased
- relative expression of mRNA of NKX6-1 in pancreatic progenitor cells [2, 3]: significantly increased
- relative expression of mRNA of PDX1 in pancreatic progenitor cells [2, 3]: significantly increased
